This is an account of results in patent EP4711371A1 (priority 2023, dated 2024).

By IC50 is commonly meant the concentration that gives 50% inhibition.

Molecules are shown by their SMILES. Where two headings read alike, the source gives them in different places.

What all share (format): cell-based
Assay [1] deals with MDA-MB-453. Put plainly: In vitro proliferation inhibition assay of camptothecin derivatives (Payload), Test Example 1. As to conditions: Homo sapiens, MDA-MB-453, 96 h, read-out: MDA-MB-453 IC50. The text has this: (§1) The control compounds used in the experiment were DXD (synthesized from EXD according to the synthesis method of patent EP2907824B1. EXD was purchased from MedChemExpress, catalog number: HY-13631A) and SN38 (purchased from Bide Pharmatech, catalog number BD8481). Their structural formulas are [drawing 515] respectively.
(§2) The cell lines used in this experiment were human breast cancer cells SK-BR-3, T47D, MDA-MB-453, human malignant melanoma cells A375, human lung squamous carcinoma cells NCI-H1703, and human gastric cancer cells NCI-N87. Cell suspensions were prepared in fresh cell culture medium containing 10% FBS and then diluted to a density of 5 × 10^4 cells/mL, 10×10^4 cells/mL, 100 µL per well was added to a 96-well cell culture plate (Thermo catalog number: 167425), and cultured at 37°C with 5% carbon dioxide for 24 h.
(§3) The test compounds of the present invention and the control compounds were each prepared to 10 mM stock solutions in DMSO, and the drugs were diluted with 5% FBS 1640 culture medium in a gradient of 50, 10, 2, 0.4, 0.08, 0.016, 0.0032, 0.00064, 0.000128, and 0 µM, with two replicates for each well.
(§4) 50 µL of cell supernatant was pipetted from each 96-well plate, followed by the addition of 50 µL of compound dilutions at final […] of 25, 5, 1, 0.2, 0.04, 0.008, 0.0016, 0.00032, 0.000064, and 0 µM. After mixing, the cells were cultured in a constant temperature CO2 incubator for 4 days. Cell supernatant was then added with 100 µL of detection reagent (5% FBS1640 medium and CCK-8 solution in a 10:1 ratio) and incubated in an incubator for 4 hours. […] was read on a microplate reader (TECAN, Spark), and data were analyzed using Graphpad Prism 8 software.

Another assay concerns SK-BR-3. The description is as above. The settings on record: Homo sapiens, SK-BR-3, 96 h, read-out: SK-BR-3 IC50.
Text: as §1, §2, §3, §4

In another assay the test system is NCI-N87. The description is as above. As to conditions: Homo sapiens, NCI-N87, 96 h, read-out: NCI-N87 IC50.
Text: as §1, §2, §3, §4

Assay [2] relates to T47D. The assay is described as follows: cells. The settings on record: Homo sapiens, 96 h.
Text: as §1, §2, §3, §4

The test system of another assay is NCI-H1703. Put plainly: In vitro proliferation inhibition assay of camptothecin derivatives (Payload), Test Example 1. The settings on record: Homo sapiens, NCI-H1703, 96 h, read-out: NCI-H1703 IC50.
Text: as §1, §2, §3, §4

Another assay has as its system A375. The assay is described as above. The settings on record: Homo sapiens, A-375, 96 h, read-out: A375 IC50.
Text: as §1, §2, §3, §4

Assay [3] concerns MDA-MB-453. The assay is described as follows: In vitro proliferation inhibition assay of camptothecin derivatives (Payload), Test Example 2. The settings on record: Homo sapiens, MDA-MB-453, 120 h, read-out: MDA-MB-453 IC50. The procedure: (§5) Test Example 2 In vitro proliferation inhibition assay of the camptothecin derivatives (Payload) of the present invention on tumor cells 1. Instruments and Reagents
(§6) 2. Experimental Procedure • a. Plating & culture: MDA-MB-453 (purchased from: Xiehe, catalog number: 1101HUM-PUMCO00016)/T47D (Kebai, CBP60397)/HT1376 cells (purchased from: Kebai, catalog number: CBP60310) were cultured into 96-well plates by a density of 1×10^3 /2×10^3 /1×10^3 cells per100 µL, and 200 µL of PBS was added to the outermost circle (to reduce the volatilization of the culture medium), and cultured at 37°C, 5% CO2 incubator for 24 h; • b. Drug Addition & Incubation: The 96-well flat-bottom plate was retrieved. The culture medium in the wells was aspirated, and 100 µL of the ADC drug/payload (diluted in culture medium) was added to each well. The plate was then incubated at 37°C, 5% CO2 incubator for 5 days. 3. Detection and data processing • a. The 96-well plate was retrieved. The culture medium was removed, and 100 µL of detection reagent (CCK8:medium= 1:9) was added to each well. The plate was then placed in a 37°C, 5% CO2 incubator for 4 hours; • b. The optical density (OD) at 450 nm was measured using a microplate reader (model: CEY0017), and the data was recorded with Excel. • c. Graphpad Prism 9.0 was used to analyze and organize the data.

In another assay the test system is HT1376. The description is as above. As to conditions: Homo sapiens, HT-1376, 120 h, read-out: HT1376 IC50. The protocol:
as §5, §6

In assay [4] the test system is T47D. Put plainly: cells. The settings on record: Homo sapiens, 120 h, read-out: T47D IC50. The procedure:
as §5, §6

The mark [5] stands for this setting: payload, cultured 4 days, CCK-8.
Where [6] appears, read: payload, cultured 4 days, CCK-8, ~ indicates estimated IC50 value.
The mark [7] stands for this setting: payload, cultured 4 days, CCK-8, read-out: T47D IC50.

Consider `CCc1c2c(nc3ccc(O)cc13)-c1cc3c(c(=O)n1C2)COC(=O)[C@]3(O)CC` [SN38, SN-38, reference compound], for which the IC50 with MDA-MB-453 [1] (setting [5]) is 32.8 nM; in the assay on SK-BR-3 (setting [5]), 2.51 nM; with NCI-N87 (setting [5]) it was 5.38 nM; with T47D [2] (read-out: T47D IC50) it was 2.11 nM.

Regarding `CC[C@@]1(O)C(=O)OCc2c1cc1n(c2=S)Cc2c-1nc1cc(F)c(C)cc1c2CNC(=O)CO` [Compound 17], the IC50 in the assay with MDA-MB-453 [1] was determined as 1.14 nM; in the assay with SK-BR-3, 0.675 nM; with NCI-N87, 0.999 nM; in the assay with T47D [2] (read-out: T47D IC50), 0.172 nM.

As to `CC[C@@]1(OC(=O)CCOCCOCCOCCOC)C(=O)OCc2c1cc1n(c2=O)Cc2c-1nc1cc(F)c(C)c3c1c2[C@@H](N)CC3` [Compound 7], the IC50 was 570 nM in the assay with MDA-MB-453 [1] (setting [5]), 0.064 nM in the assay on NCI-H1703 (setting [5]), 0.714 nM with A375 (setting [6]) and 245 nM with T47D [2] (setting [7]).

Consider `CCC1(O)CC(=O)OCc2c1cc1n(c2=O)Cc2c-1nc1cc(F)c(C)cc1c2CN` (stereo not drawn) [Example 47], for which the concentration for half-maximal inhibition (IC50) in the assay on MDA-MB-453 [1] (setting [5]) is 4.37 nM; in the assay with T47D [2] (setting [7]), 0.956 nM.

As for `CC[C@@]1(O)C(=O)OCc2c1cc1n(c2=O)Cc2c-1nc1cc(F)c(C)c3c1c2[C@@H](N)CC3` [EXD, Exatecan, reference compound], the IC50 is 0.902 nM in the assay with MDA-MB-453 [3]; 8.71 nM with HT1376; 1.02 nM with MDA-MB-453 [1]; 0.866 nM in the assay on SK-BR-3; 1.45 nM in the assay with NCI-N87; 0.00789 nM in the assay on NCI-H1703. Also, the IC50 was determined as 0.221 nM in the assay on T47D [4] and 0.729 nM with T47D [2] (read-out: T47D IC50).

In the case of `CC[C@@]1(OC(=O)COc2ccc(Cl)cc2C)C(=O)OCc2c1cc1n(c2=O)Cc2c-1nc1cc(F)c(C)c3c1c2[C@@H](N)CC3` [Compound 9], the IC50 turned out to be 3.86 nM with MDA-MB-453 [1] (setting [5]), 0.149 nM in the assay on NCI-H1703 (setting [5]) and 0.804 nM in the assay on T47D [2] (setting [7]).

Take `CC[C@@]1(O)C(=O)OCc2c1cc1n(c2=S)Cc2c-1nc1cc(F)c(C)cc1c2CN` [Compound 11]: the IC50 with MDA-MB-453 [3] amounted to 0.645 nM; with HT1376, 3.85 nM; in the assay with SK-BR-3, 0.906 nM; in the assay with NCI-N87, 1.56 nM; in the assay with T47D [4], 0.141 nM.

`CCC1(O)CC(=O)OCc2c1cc1n(c2=O)Cc2c-1nc1cc(F)c(F)cc1c2CN` (stereo not drawn) [Example 49]: the half-maximal inhibitory concentration (IC50) was 24.5 nM in the assay on MDA-MB-453 [1] (setting [5]) and 11 nM with T47D [2] (setting [7]).

Turning to `CCC1(O)CC(=O)OCc2c1cc1n(c2=O)Cc2c-1nc1cc(F)c(C)cc1c2CCCCO` (stereo not drawn) [Example 48], the IC50 was found to be 17.7 nM with MDA-MB-453 [1] (setting [5]) and 0.832 nM in the assay on T47D [2] (setting [7]).

For `CCC1(OC(=O)Cc2ccc(OC3OC(CO)C(O)C(O)C3O)cc2)C(=O)OCc2c1cc1n(c2=O)Cc2c-1nc1cc(F)c(C)c3c1c2C(N)CC3` (stereo not drawn) [Compound 3], the IC50 with SK-BR-3 turned out to be 1.04 nM; in the assay with NCI-N87 it was 1.91 nM.

`CC[C@@]1(OC(=O)CCN2CCN(C)CC2)C(=O)OCc2c1cc1n(c2=O)Cc2c-1nc1cc(F)c(C)c3c1c2[C@@H](N)CC3` [Compound 2]: the IC50 with SK-BR-3 (setting [5]) came to 1.56 nM; in the assay with NCI-N87 (setting [5]), 3.75 nM.

As for `CC[C@@]1(OC(=O)CCN2C(=O)c3ccccc3C2=O)C(=O)OCc2c1cc1n(c2=O)Cc2c-1nc1cc(F)c(C)c3c1c2[C@@H](N)CC3` [Compound 4], the figures for the IC50 in the assay on SK-BR-3 (setting [5]) and with NCI-N87 (setting [5]) were 183 nM and 381 nM, respectively.

In the case of `CC[C@@]1(OC(=O)Cn2cc(F)c(=O)[nH]c2=O)C(=O)OCc2c1cc1n(c2=O)Cc2c-1nc1cc(F)c(C)c3c1c2[C@@H](N)CC3` [Compound 6], the IC50 is 4.24 nM in the assay with MDA-MB-453 [1] (setting [5]); 1.23 nM in the assay with SK-BR-3 (setting [5]); 2.23 nM with NCI-N87 (setting [5]); 0.59 nM in the assay on NCI-H1703 (setting [5]); 0.164 nM in the assay with A375 (setting [6]); 0.742 nM in the assay with T47D [2] (setting [7]).

As to `CC[C@@]1(O)C(=O)OCc2c1cc1n(c2=S)Cc2cc3cc(N)c(F)cc3nc2-1` [Example 46], the figures for the IC50 in the assay with SK-BR-3 and with NCI-N87 were 0.0155 nM and 0.229 nM, respectively.

On to `CC[C@@]1(O)C(=O)OCc2c1cc1n(c2=O)Cc2c-1nc1cc(F)c(C)c3c1c2[C@@H](NC(=O)CO)CC3` [DXD, Dxd, reference compound], for which the IC50 in the assay with MDA-MB-453 [1] came out at 2.87 nM; in the assay with SK-BR-3, 3.62 nM; in the assay on NCI-N87, 5.97 nM; in the assay with NCI-H1703 it was 0.472 nM; in the assay with A375, 0.131 nM; with T47D [2] (read-out: T47D IC50) it was 1.02 nM.
